Consider three compounds from patent publication US7345089B2, “Microbial method of making equol-containing composition and product made” (Otsuka Pharmaceutical Co., Ltd., priority 1997, dated 2008).

Series [1] in a line: Determination of urinary excretions of isoflavonoids in perimenopausal women (survey). As to the method:
To accomplish the above object, the inventors first conducted a dietary survey, determination of urinary excretions of isoflavonoids, and a questionnaire survey about menopausal syndrome (unidentified clinical syndrome) in perimenopausal women in a broad geographical area including urban communities.
Furthermore, women with paramenia and those within 5 years of the menopause being taken together as menopausal subjects, a questionnaire survey was conducted using 17 items which are in routine use in the diagnosis of menopausal syndrome [17 items as a modification of Kupperman menopausal index (Kupperman H. S., et al., (1953), J. Clin. Endocrinol. Metabol., 13, 688-703), i.e. 1. hot flushes, 2. perspiration, 3. local sensation of cold, 4. shortness of breath, 5. numbness of limbs, 6. hypesthesia, 7. difficulty in falling asleep, 8. fitful sleep, 9. irritability, 10. nervousness, 11. melancholy, 12. vertigo, nausea, 13. weakness(fatigue), 14. stiff shoulders, pain in joints, muscular pain, 15. headache, 16. palpitation, 17. tingling sensation] and the simplified menopausal index (SMI) was calculated. With subjects with SMI values not less than 20 being taken as a group of high climacteric symptoms and those with SMI values not greater than 19 as a group of low climacteric symptoms, the amount of intake of isoflavonoids and the urinary excretion of isoflavonoids were respectively compared between the groups.

Series [2] can be described thus: Urinary excretion of isoflavonoids after single ingestion of soy milk in healthy adult volunteers. The following applies: healthy adult volunteers 25-33 years of age.
The conditions of series [3]: human, in vivo.
The mark [4] stands for this setting: SMI not less than 20 vs SMI not greater than 19, equol p<0.01.

Turning to `O=c1c(-c2ccc(O)cc2)coc2cc(O)ccc12` [daidzein], the “urinary excretions, group of high climacteric symptoms vs group of low climacteric symptoms” value in series [1] (setting [4]) was “no intergroup difference”. Further, the “average urinary excretions of isoflavonoids” value in series [1] (female, human, in vivo) was found to be 19.6 µmol/day. Further, the “urinary excretions after single ingestion of soy milk” value in series [2] is “increased in a dose-related fashion”.

Consider `Oc1ccc(C2COc3cc(O)ccc3C2)cc1` (centres unmarked) [equol], for which, in series [1] (in vivo), the “average excretions of equol (urinary)” value worked out at 11.9 µmol/day; the “subjects in whom detected in urine” value is 46 (51.6%); the “urinary excretions, group of high climacteric symptoms vs group of low climacteric symptoms” value is on record as “significantly low”. For the same compound, in series [3], the “equol in urine when intake of soy milk increased two-fold” value is recorded as “not detected”.

With `O=c1c(-c2ccc(O)cc2)coc2cc(O)cc(O)c12` [genistein], the “urinary excretions, group of high climacteric symptoms vs group of low climacteric symptoms” value in series [1] (setting [4]) was “no intergroup difference”. Moreover, the “subjects in whom detected in urine” value in series [1] (of the 95 subjects, number (%)) is given as “detected in all the subjects”. Moreover, the “average urinary excretions of isoflavonoids” value in series [1] (women aged between 40 and 60) turned out to be 10.0 µmol/day. The “urinary excretions after single ingestion of soy milk” value in series [2] is recorded as “increased in a dose-related fashion”.
